How the values were obtained:
[1] = target: T1, Solute carrier family 22 member 1 (Mus musculus, UniProt O08966); assay: (§1) TP_TRANSPORTER: inhibition of MPP+ uptake in Xenopus laevis oocytes; assay type: functional, cell-based, Oocyte
T1 sequence (O08966 whole entry): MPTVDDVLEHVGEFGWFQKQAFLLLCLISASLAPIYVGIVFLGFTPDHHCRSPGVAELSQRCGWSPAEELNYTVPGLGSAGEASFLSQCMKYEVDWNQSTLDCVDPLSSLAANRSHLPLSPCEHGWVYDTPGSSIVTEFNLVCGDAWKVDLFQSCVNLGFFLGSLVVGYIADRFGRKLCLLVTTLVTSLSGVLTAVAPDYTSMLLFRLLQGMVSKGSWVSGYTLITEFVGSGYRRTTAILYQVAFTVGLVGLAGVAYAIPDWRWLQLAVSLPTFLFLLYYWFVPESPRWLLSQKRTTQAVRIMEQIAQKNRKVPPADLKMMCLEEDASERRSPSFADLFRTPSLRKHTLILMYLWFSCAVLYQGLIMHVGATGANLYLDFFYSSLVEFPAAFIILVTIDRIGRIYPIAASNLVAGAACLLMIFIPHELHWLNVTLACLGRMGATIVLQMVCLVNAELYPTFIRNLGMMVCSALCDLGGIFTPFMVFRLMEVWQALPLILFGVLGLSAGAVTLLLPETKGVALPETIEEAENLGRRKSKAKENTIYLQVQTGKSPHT

[2] = target: T2, Solute carrier family 22 member 1 (Homo sapiens, UniProt O15245); assay: as §1; assay type: functional, cell-based, Oocyte
T2 sequence (O15245 whole entry): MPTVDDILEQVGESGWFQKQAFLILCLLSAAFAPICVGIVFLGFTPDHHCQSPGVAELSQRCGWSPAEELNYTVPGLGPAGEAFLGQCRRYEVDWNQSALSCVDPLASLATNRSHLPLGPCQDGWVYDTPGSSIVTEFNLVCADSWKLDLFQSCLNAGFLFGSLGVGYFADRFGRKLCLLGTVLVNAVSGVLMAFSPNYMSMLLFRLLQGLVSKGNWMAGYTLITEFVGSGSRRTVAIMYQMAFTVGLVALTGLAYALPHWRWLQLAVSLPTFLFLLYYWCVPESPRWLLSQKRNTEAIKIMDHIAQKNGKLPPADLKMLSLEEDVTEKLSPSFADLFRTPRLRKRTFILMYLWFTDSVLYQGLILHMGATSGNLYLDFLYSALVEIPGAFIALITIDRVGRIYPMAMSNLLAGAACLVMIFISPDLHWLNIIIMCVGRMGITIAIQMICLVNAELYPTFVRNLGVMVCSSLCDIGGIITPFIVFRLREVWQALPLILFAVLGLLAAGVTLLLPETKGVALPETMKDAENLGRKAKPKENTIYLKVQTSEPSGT

[3] = target: T3, Solute carrier family 22 member 1 (Rattus norvegicus, UniProt Q63089); assay: as §1; assay type: functional, cell-based, Oocyte
T3 sequence (Q63089 whole entry): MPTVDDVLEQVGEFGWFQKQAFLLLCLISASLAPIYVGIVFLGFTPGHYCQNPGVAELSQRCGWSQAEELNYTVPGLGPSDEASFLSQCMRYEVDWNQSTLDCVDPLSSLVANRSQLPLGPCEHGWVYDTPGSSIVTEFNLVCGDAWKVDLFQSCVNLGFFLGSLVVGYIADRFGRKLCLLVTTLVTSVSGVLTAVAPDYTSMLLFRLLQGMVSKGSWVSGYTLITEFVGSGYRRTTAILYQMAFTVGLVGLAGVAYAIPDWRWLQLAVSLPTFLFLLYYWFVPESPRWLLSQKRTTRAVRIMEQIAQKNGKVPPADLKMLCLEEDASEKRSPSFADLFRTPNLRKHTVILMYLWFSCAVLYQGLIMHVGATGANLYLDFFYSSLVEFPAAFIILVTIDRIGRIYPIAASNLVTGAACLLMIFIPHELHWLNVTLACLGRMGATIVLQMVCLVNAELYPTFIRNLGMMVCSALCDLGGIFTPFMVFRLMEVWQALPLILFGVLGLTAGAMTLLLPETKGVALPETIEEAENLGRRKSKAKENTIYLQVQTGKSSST

[4] = target: T1, Solute carrier family 22 member 1; assay: (§2) TP_TRANSPORTER: trans-stimulation of MPP+ uptake (MPP+: 1 uM, TPeA: 200 uM) in Xenopus laevis oocytes; assay type: functional, cell-based; details: oocyte
[5] = target: T2, Solute carrier family 22 member 1; assay: as §2; assay type: functional, cell-based; details: oocyte
[6] = target: T3, Solute carrier family 22 member 1; assay: as §2; assay type: functional, cell-based; details: oocyte

| Compound | Ki [1] [µM] | Ki [2] [µM] | Ki [3] [µM] | Activity [4] | Activity [5] | Activity [6] |
| --- | --- | --- | --- | --- | --- | --- |
| CCCC[N+](CCCC)(CCCC)CCCC [TETRABUTHYLAMMONIUM] | 7.3 | 29.6 | 17 | – | – | – |
| C[N+](C)(C)C [TETRAMETHYLAMMONIUM] | 2040 | 12400 | – | – | – | – |
| CCCCC[N+](CCCCC)(CCCCC)CCCCC [TETRAPENTYLAMMONIUM] | – | – | – | inhibitor [trans-inhibited: (at a rough estimate) 30 % of control] | is not an inhibitor [-] | inhibitor [trans-inhibited: (at a rough estimate) 80 % of control] |
| CCC[N+](CCC)(CCC)CCC [TETRAPROPYLAMMONIUM] | 19.8 | 102 | 21 | – | – | – |
| CC[N+](CC)(CC)CC [TETRYLAMMONIUM] | 128 | 158 | 100 | – | – | – |

From ChEMBL document CHEMBL2074488, “Kinetic and selectivity differences between rodent, rabbit, and human organic cation transporters (OCT1)” (J Pharmacol Exp Ther, 2000)
